Series [1] can be described thus: Intrinsic clearance in human liver microsomes. In kind it is ADME. The settings on record: read-out: CLH.
Series [2] is described as follows: Intrinsic clearance in human hepatocytes. In kind it is ADME, cell-based, Hepatocyte. The conditions noted are these: read-out: CLH.
Series [3] is described as follows: Dissociation constant, pKa of the compound. In kind it is physicochemical.

Consider `N[C@H]1CC[C@@H](Nc2cc[nH]c(=O)c2-c2nc3ccccc3[nH]2)CC1`, for which the CLint scaled in series [1] is less than 15 mL/min/kg; in series [2], 12 mL/min/kg.

Compound `COCCN[C@H]1CC[C@@H](Nc2cc[nH]c(=O)c2-c2nc3ccccc3[nH]2)CC1` had a pKa in series [3] of 9.2.

Turning to `CCN[C@H]1CC[C@@H](Nc2cc[nH]c(=O)c2-c2nc3ccccc3[nH]2)CC1`, in series [3], the pKa is 10.5.

As for `O=c1[nH]ccc(N[C@H]2CC[C@@H](NCC(F)(F)F)CC2)c1-c1nc2ccccc2[nH]1`, the pKa in series [3] was found to be 4.8.

In series [3], `O=c1[nH]ccc(N[C@H]2CC[C@@H](NCCF)CC2)c1-c1nc2ccccc2[nH]1` gave a pKa of 8.8.

With `O=c1[nH]ccc(N[C@H]2CC[C@@H](NCC(F)F)CC2)c1-c1nc2ccccc2[nH]1`, in series [3], the pKa turned out to be 6.6.

Broadly, the pKa is the negative logarithm of the acid dissociation constant. High values mean a weaker acid or stronger base, low ones a stronger acid or weaker base.

Source of the values: ChEMBL document CHEMBL3779778, “Structure-based design and development of (benz)imidazole pyridones as JAK1-selective kinase inhibitors” (Bioorg Med Chem Lett, 2016).
